Experimental data as given in ChEMBL document CHEMBL2380257, “Discovery of a small-molecule inhibitor and cellular probe of Keap1-Nrf2 protein-protein interaction” (Bioorg Med Chem Lett, 2013).

What was measured:
Format in all cases: physicochemical
[1] = Metabolic stability of the compound assessed as thiol group decomposition after 48 hrs in presence of glutathione
[2] = Stability in phosphate buffer after 24 hrs
[3] = Metabolic stability of the compound assessed as thiol group addition after 48 hrs in presence of glutathione
[4] = Solubility of the compound in phosphate buffer

Stability [1]: Stable
Stability [2]: Stable
Stability [3]: Stable
solubility [4]: > 100 µM
SMILES: O=C(O)[C@H]1CCCC[C@H]1C(=O)N1CCc2ccccc2[C@H]1CN1C(=O)c2ccccc2C1=O
